Reference: publication PMC4736406 (Stem Cells International, 2016)
Counter-ions that a name gives are not always drawn. One block for each compound: values may come before it.

Experiments:
[1] = test system: HepG2 cells; assay: Image based high content analysis (HCA), fixed and live assays, in HepG2
Procedure: Briefly, the cells were grown in DMEM supplemented with 10% heat inactivated FBS, 1% penicillin-streptomycin (PEST), 1% sodium pyruvate, and 1% nonessential amino acids. Cells were passaged at 1 : 8 or 1 : 6 every 3-4 days when they reach 75–80% confluence. Seeding density was optimized for HCA application to ensure that the cells were in a monolayer (5000 cells per well in 96-well plates) for precise imaging. The cells were grown for 48 h to attach and stabilize. The experiments performed with HepG2 cells were designed to ensure that each assay was performed with cells in a similar growth phase.
Each concentration was assayed in triplicate wells. […] The experimental process is illustrated in Figure 2.
And finally, TOTO-3 was used for assessing PMP.
The cells were imaged using an Olympus ScanR system.
All other fluorescence signals were considered as subobjects.

[2] = plasma; no reference given; read-out: C max (maximum plasma concentration of the drug); cited from earlier work
[3] = test system: hiPSC derived hepatocytes (hiPS-HEP);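 also: hiPS-HEP obtained from ChiPSC4 through definitive endoderm under serum- and feeder-free conditions in 96-well plates, fluorescence imaging, each concentration run in triplicate wells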
Source text: (§1) For hepatic differentiation, a serum- and feeder-free procedure recapitulating liver development was applied. First, ChiPSC4 was guided to differentiate into definitive endoderm using the Cellartis DE Diff Kit (Takara Bio Europe AB; Y30030), containing complete media and coating solution for differentiation of hPSC to DE cells in 2D culture. On day 7 of differentiation, the DE cells were enzymatically dissociated and reseeded into fibronectin coated 96-well plates. […] Wells of 96-well plates were coated by adding fibronectin solution 0.15 mL per cm^2 to the wells and let to incubate for >60 min at RT. […] Next, the cell suspension was centrifuged for 5 min at 300 g at RT, the supernatant was removed, and the cell pellet was resuspended in warm Hepatocyte Thawing and Seeding medium (Cellartis Hepatocyte Diff Kit; Takara Bio Europe AB; Y30050). Prior to seeding of cells, excess coating was removed and 150 K DE cells/cm^2 were seeded in the 96-well plates. On days 9 and 11 (counted from the start of ChiPSC4 differentiation), medium was changed using Hepatocyte Progenitor Medium (Cellartis Hepatocyte Diff Kit).
(§2) The cells were treated for 48 h with compounds at varying concentrations (half log dilution from the top concentration). […] The stock solutions were prepared in DMSO or water and were diluted in culture medium to obtain the final concentration. Each concentration was assayed in triplicate wells. Vehicle control wells were included and the final DMSO concentration in the medium never exceeded 0.5% (v/v). Each batch had two plates each for fixed and live assays.
(§3) LipidTOX Green neutral lipids and LipidTox Red phospholipidosis were used for identifying neutral lipid and phospholipid formation within the cells. MMP changes (Δψm) within the cell were measured using MitoTracker orange. Carboxy-H2DCFDA (6-carboxy-2′,7′-dichlorodihydrofluorescein diacetate) an acetylated fluorescent was used for measuring ROS. And finally, TOTO-3 was used for assessing PMP.
(§4) The fluorescence probes were grouped into two sets according to their optical compatibility and requirement of fixed or live material. […] The fluorescent probes for neutral lipids and phospholipids required the cells to be fixed and were assigned to the fixed assay. The probes MitoTracker orange, carboxy-H2DCFDA, and TOTO-3 were assigned to the live assay.
(§5) Following compound incubation, probes were administered to the cultures of the live assay. […] After incubation for 45 min at optimal cell culture conditions, the cells were changed to phenol red (PR) free medium for live cell imaging. For fixed assay, LipidTox Red probe was added with the compounds, and after 48 h the cells were fixed in 4% PFA supplemented with 1X Hoechst stain for 30 min at room temperature. Subsequently, cells were washed with PBS^+/+ and 1X LipidTOX Green stain diluted in PBS^+/+ was incubated with the cells for 30 min at room temperature. The plates were imaged without removing the buffer with probe.
(§6) The cells were imaged using an Olympus ScanR system. Prior to image acquisition, the heating system and CO2 gas flow were started to ensure optimal conditions in the ScanR chamber for live cell analysis. The incubator was set to 37°C with 5% CO2 and relative humidity of 90%. […] 20X long distance objective with NA 0.45 was used to image distinct fluorescence channels. In order to cover the entire well and also to capture maximum cell events sixteen fields per well (4 × 4 tile grid spread equally) were imaged. The channel exposure time for LipidTOX Green, LipidTOX Red, MitoTracker orange, and carboxy-H2DCFHDA were set based on the fluorescence of the negative control wells and were set constant within each plate. Exposure time for Hoechst and TOTO-3 was set in the range of 1–10 ms depending on cellular fluorescence intensity.
(§7) The acquired images were analyzed using ScanR analysis program from Olympus.

[4] = test system: hiPSC derived hepatocytes (hiPS-HEP); assay: Image based high content analysis (HCA), fixed and live assays, in hiPSC derived hepatocytes;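 also: hiPS-HEP obtained from ChiPSC4 through definitive endoderm under serum- and feeder-free conditions in 96-well plates, fluorescence imaging, each concentration run in triplicate wells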
Source text: as §1, §2, §3, §4, §5, §6, §7

[5] = hiPSC derived hepatocytes, at concentrations higher than 100 μM, similar to control up to 100 μM

- IC50/EC50 Nucleus Cell count ([1]; HepG2, fixed assay, 48 h): 165 µM
- IC50/EC50 Nucleus MI ([1]; HepG2, fixed assay, 48 h): 892 µM
- IC50/EC50 Steatosis Area ([1]; HepG2, fixed assay, 48 h): 398 µM
- IC50/EC50 Steatosis Count ([1]; HepG2, fixed assay, 48 h): 260 µM
- IC50/EC50 MMP MI ([1]; HepG2, live assay, 48 h): 622 µM
- IC50/EC50 Nucleus Cell count ([1]; HepG2, live assay, 48 h): 120.3 µM
- IC50/EC50 Nucleus MI ([1]; HepG2, live assay, 48 h): 153 µM
- IC50/EC50 ROS MI ([1]; HepG2, live assay, 48 h): 115 µM
- MEC, MMP mean intensity ([1]; human, 48 h): 1000 µM
- MEC, PMP mean intensity ([1]; human, 48 h): 1000 µM
- MEC, ROS mean intensity ([1]; human, 48 h): 316 µM
- MEC, nuclear changes area (NC, A) ([1]; human, 48 h): 1000 µM
- MEC, nuclear changes mean intensity (NC, MI) ([1]; human, 48 h): 1000 µM
- MEC, steatosis droplet count (S, C) ([1]; human, 48 h): 316 µM
- MEC, steatosis mean intensity (S, MI) ([1]; human, 48 h): 1000 µM
- SRI (steatotic risk index) Lipid ([1]; human, 48 h): 36
- SRI (steatotic risk index) ROS ([1]; human, 48 h): 36
- Phospholipid parameters / accumulation of phospholipids [3]: no changes were detected
- ROS levels [3]: unaffected
- Concentration at which increase in lipid accumulation / lipid droplets was observed ([3]; human, 48 h): 320 µM
- MEC, MMP mean intensity ([3]; human, 48 h): 1000 µM
- MEC, PMP mean intensity ([3]; human, 48 h): 31.6 µM
- MEC, nuclear changes mean intensity (NC, MI) ([3]; human, 48 h): 100 µM
- MEC, steatosis droplet count (S, C) ([3]; human, 48 h): 316 µM
- MEC, steatosis mean intensity (S, MI) ([3]; human, 48 h): 1000 µM
- SRI (steatotic risk index) Lipid ([3]; human, 48 h): 36
- SRI (steatotic risk index) ROS ([3]; human, 48 h): >114
- Concentration from which effects on plasma membrane permeability (PMP) start ([4]; hiPSC derived hepatocytes): 32 µM
Compound: C[C@H]1c2cccc(O)c2C(=O)C2=C(O)[C@]3(O)C(=O)C(C(N)=O)=C(O)[C@@H](N(C)C)[C@@H]3[C@@H](O)[C@@H]21 [Doxycycline, doxycycline]
- MEC, viability cell count (V, CC) ([1]; human, 48 h): 316 µM
- Minimal effective concentration (MEC), viability cell count (V, CC) ([1]; human, 48 h): 100 µM
- TR (toxicity risk) ([1]; human, 48 h): 11.4
- Cmax [2]: 8.8 µM
- Effect on mitochondrial membrane [3]: concentration dependent depolarization of the mitochondrial membrane
- MEC, viability cell count (V, CC) ([3]; human, 48 h): 1000 µM
- Minimal effective concentration (MEC), viability cell count (V, CC) ([3]; human, 48 h): 100 µM
- TR (toxicity risk) ([3]; human, 48 h): 3.6
- IC50/EC50 Nucleus Area ([4]; hiPS-HEP, fixed assay, 48 h): 96.1 µM
- IC50/EC50 Nucleus Cell count ([4]; hiPS-HEP, fixed assay, 48 h): 107 µM
- IC50/EC50 Nucleus MI ([4]; hiPS-HEP, fixed assay, 48 h): 47.2 µM
- IC50/EC50 Steatosis Count ([4]; hiPS-HEP, fixed assay, 48 h): 115 µM
- IC50/EC50 Steatosis MI ([4]; hiPS-HEP, fixed assay, 48 h): 441 µM
- IC50/EC50 MMP MI ([4]; hiPS-HEP, live assay, 48 h): 644 µM
- IC50/EC50 Nucleus Area ([4]; hiPS-HEP, live assay, 48 h): 204.3 µM
- IC50/EC50 Nucleus Cell count ([4]; hiPS-HEP, live assay, 48 h): 69.4 µM
- IC50/EC50 Nucleus MI ([4]; hiPS-HEP, live assay, 48 h): 120 µM
- IC50/EC50 PMP MI ([4]; hiPS-HEP, live assay, 48 h): 26.9 µM
- IC50/EC50 ROS MI ([4]; hiPS-HEP, live assay, 48 h): 10.5 µM
- Cell count reduction ([4]; hiPSC derived hepatocytes, at 100 μM): 50%

Compound: CN(C)[C@@H]1C(O)=C(C(N)=O)C(=O)[C@@]2(O)C(O)=C3C(=O)c4c(O)cccc4[C@@](C)(O)[C@H]3C[C@@H]12 [Tetracycline, tetracycline hydrochloride]
- Significant changes on MMP ([1]; HepG2): not detected
- IC50/EC50 Nucleus Area ([1]; HepG2, fixed assay, 48 h): 464 µM
- IC50/EC50 Nucleus Cell count ([1]; HepG2, fixed assay, 48 h): 558 µM
- IC50/EC50 Nucleus MI ([1]; HepG2, fixed assay, 48 h): 348 µM
- IC50/EC50 Steatosis Area ([1]; HepG2, fixed assay, 48 h): 287 µM
- IC50/EC50 Steatosis Count ([1]; HepG2, fixed assay, 48 h): 36.3 µM
- IC50/EC50 Steatosis MI ([1]; HepG2, fixed assay, 48 h): 361 µM
- IC50/EC50 MMP MI ([1]; HepG2, live assay, 48 h): 265 µM
- IC50/EC50 Nucleus Area ([1]; HepG2, live assay, 48 h): 336 µM
- IC50/EC50 Nucleus Cell count ([1]; HepG2, live assay, 48 h): 836 µM
- IC50/EC50 Nucleus MI ([1]; HepG2, live assay, 48 h): 959 µM
- IC50/EC50 ROS MI ([1]; HepG2, live assay, 48 h): 1149 µM
- MEC, PMP mean intensity ([1]; human, 48 h): 1000 µM
- MEC, ROS mean intensity ([1]; human, 48 h): 1000 µM
- MEC, nuclear changes area (NC, A) ([1]; human, 48 h): 316 µM
- MEC, phospholipidosis mean intensity (PL, MI) ([1]; human, 48 h): 100 µM
- MEC, steatosis droplet count (S, C) ([1]; human, 48 h): 100 µM
- MEC, steatosis mean intensity (S, MI) ([1]; human, 48 h): 100 µM
- Minimal effective concentration (MEC), viability cell count (V, CC) ([1]; human, 48 h): 316 µM
- Cmax [2]: 14.2 µM
- Cytotoxic effects [3]: minimal cytotoxic effects
- Phospholipid parameters / accumulation of phospholipids [3]: not detected
- Significant changes in PMP [3]: did not generate any significant changes
- Significant changes on MMP [3]: not detected
- Concentration at which increase in lipid accumulation / lipid droplets was observed ([3]; human, 48 h): 32 µM
- Concentration at which mitochondrial membrane potential (MMP) increased ([3]; human, 48 h): 32 µM
- Concentration at which nuclear changes were evident (nuclear intensity and area) ([3]; human, 48 h): 320 µM
- Concentration at which oxidative stress increased ([3]; human, 48 h): 100 µM
- MEC, ROS mean intensity ([3]; human, 48 h): 316 µM
- MEC, nuclear changes area (NC, A) ([3]; human, 48 h): 316 µM
- MEC, steatosis droplet count (S, C) ([3]; human, 48 h): 316 µM
- MEC, steatosis mean intensity (S, MI) ([3]; human, 48 h): 1000 µM
- MEC, viability cell count (V, CC) ([3]; human, 48 h): 1000 µM
- Minimal effective concentration (MEC), viability cell count (V, CC) ([3]; human, 48 h): 1000 µM
- IC50/EC50 Nucleus Area ([4]; hiPS-HEP, fixed assay, 48 h): 105 µM
- IC50/EC50 Nucleus Cell count ([4]; hiPS-HEP, fixed assay, 48 h): 432 µM
- IC50/EC50 Nucleus MI ([4]; hiPS-HEP, fixed assay, 48 h): 211 µM
- IC50/EC50 Steatosis Area ([4]; hiPS-HEP, fixed assay, 48 h): 213 µM
- IC50/EC50 Steatosis Count ([4]; hiPS-HEP, fixed assay, 48 h): 184 µM
- IC50/EC50 Steatosis MI ([4]; hiPS-HEP, fixed assay, 48 h): 418 µM
- IC50/EC50 Nucleus Area ([4]; hiPS-HEP, live assay, 48 h): 211 µM
- IC50/EC50 Nucleus Cell count ([4]; hiPS-HEP, live assay, 48 h): 243 µM
- IC50/EC50 Nucleus MI ([4]; hiPS-HEP, live assay, 48 h): 380 µM
- IC50/EC50 ROS MI ([4]; hiPS-HEP, live assay, 48 h): 160 µM
- Increase of mean nuclear intensity [4, 5]: 12%
- Increase of nuclear area [4, 5]: 14%
- Increase of PMP compared to the control ([4]; hiPSC derived hepatocytes, at the highest concentration): 8%
